One experiment relates to B. subtilis (ATCC-6633). Kind of experiment: Broad-spectrum activity against Gram-Positive bacteria (MIC). The format is cell-based. On the set-up: unit not given here.
The subject of a further experiment is E. coli (ATCC BAA-2452). Briefly: Broad-spectrum activity against Gram-Negative bacteria (MIC). The note with it: Table 16, Gram-negative panel. The format is cell-based.
The subject of a further experiment is B. cereus (ATCC-13061). Kind of experiment: Broad-spectrum activity against Gram-Positive bacteria (MIC). On the set-up: unit not given here. The format is cell-based.
Experiment [1] relates to A. baumannii (ATCC BAA-1605). Kind of experiment: Broad-spectrum activity against Gram-Negative bacteria (MIC). The format is cell-based. The note with it: Table 16, Gram-negative panel.
Experiment [2] relates to P. aeruginosa (ATCC 10145). The description is as above. The format is cell-based. The note with it: Table 16, Gram-negative panel.
For experiment [3], the system named is P. aeruginosa (ATCC BAA-1744). The experiment is described as above. The format is cell-based. The note with it: Table 16, Gram-negative panel.
The subject of experiment [4] is Methicillin-resistant Staphylococcus aureus MRSA (ATCC BAA-1556). The note with it: MRSA ATCC BAA-1556.
Another experiment relates to S. aureus ATCC 29213. The note with it: S. aureus ATCC 29213.
Experiment [5] concerns Pseudomonas aeruginosa (ATCC 27883). The note with it: P. aeruginosa ATCC 27883.
The test system of experiment [6] is Escherichia coli (ATCC 25922). The note with it: E. coli ATCC 25922.
The test system of experiment [7] is Klebsiella pneumoniae (ATCC BAA-1705). The note with it: Table 16, Gram-negative panel.
Experiment [8] concerns Enterococcus faecium ATCC 27270. The note with it: E. faecium ATCC 27270.
The test system of experiment [9] is Enterococcus faecium ATCC 700221. The note with it: E. faecium ATCC 700221.
The subject of experiment [10] is Klebsiella pneumoniae ATCC 13883. The note with it: Table 16, Gram-negative panel.
Experiment [11] deals with Enterococcus faecalis ATCC 29212. The note with it: E. faecalis ATCC 29212.
The test system of experiment [12] is Enterococcus faecalis ATCC 51575. The note with it: E. faecalis ATCC 51575.
Experiment [13] has as its system Streptococcus pneumoniae ATCC 49619. The note with it: S. pneumoniae ATCC 49619.
The test system of experiment [14] is Streptococcus pneumoniae ATCC 51938. The note with it: S. pneumoniae ATCC 51938.

Consider “c[Arg-Arg-Arg-Arg-dip-Dip-Dip] [IFX-062]”, for which the “Broad-spectrum activity B. subtilis (ATCC-6633)” value in the experiment on B. subtilis (ATCC-6633) turned out to be 1.5. In the experiment with E. coli (ATCC BAA-2452), this substance came in with an MIC E. coli (ATCC BAA-2452) of 6.2 µg/mL. Also, the “Broad-spectrum activity B. cereus (ATCC-13061)” value with B. cereus (ATCC-13061) was 3.1. This substance came in with an MIC A. baumannii (ATCC BAA-1605) in experiment [1] of 6.2 µg/mL. Further, the MIC P. aeruginosa (ATCC 10145) in experiment [2] worked out at 25 µg/mL. This substance yielded an MIC P. aeruginosa (ATCC BAA-1744) in experiment [3] of 12.5 µg/mL. Moreover, in [4], the “MIC MRSA ATCC BAA-1556” value is 3.1 µg/mL. Besides, the “MIC S. aureus ATCC 29213” value in the experiment with S. aureus ATCC 29213 was 3.1 µg/mL. The “MIC P. aeruginosa ATCC 27883” value in [5] came to 6.2 µg/mL. Also, the “MIC E. coli ATCC 25922” value in experiment [6] worked out at 12.5 µg/mL. Besides, the MIC K. pneumonia (ATCC BAA-1705) in experiment [7] came to 12.5 µg/mL. The “Broad-spectrum activity E. faecium (ATCC 27270)” value in [8] came to 3.1. Further, in experiment [9], the “Broad-spectrum activity E. faecium (ATCC 700221)” value is 3.1. The MIC K. pneumonia (ATCC 13883) in [10] is 50 µg/mL. In addition, in experiment [11], the “Broad-spectrum activity E. faecalis (ATCC 29212)” value was determined as 6.2. Besides, the “Broad-spectrum activity E. faecalis (ATCC 51575)” value in experiment [12] turned out to be 12.5. The “Broad-spectrum activity S. pneumoniae (ATCC 49619)” value in experiment [13] stood at 50. For the same substance, the “Broad-spectrum activity S. pneumoniae (ATCC 51938)” value in experiment [14] is 12.5.

As to “c[Arg-Arg-Arg-Arg-Dip-Trp-dip] [IFX-088]”, the “Broad-spectrum activity B. subtilis (ATCC-6633)” value with B. subtilis (ATCC-6633) is on record as 1.5. In the experiment on E. coli (ATCC BAA-2452), the MIC E. coli (ATCC BAA-2452) is 12.5 µg/mL. For the same substance, in the experiment with B. cereus (ATCC-13061), the “Broad-spectrum activity B. cereus (ATCC-13061)” value came to 6.2. The substance further displayed an MIC A. baumannii (ATCC BAA-1605) in [1] of 12.5 µg/mL. For the same substance, the MIC P. aeruginosa (ATCC 10145) in [2] is 25 µg/mL. In experiment [3], this substance gave an MIC P. aeruginosa (ATCC BAA-1744) of 50 µg/mL. The “MIC MRSA ATCC BAA-1556” value in experiment [4] was determined as 3.1 µg/mL. In addition, in the experiment with S. aureus ATCC 29213, the “MIC S. aureus ATCC 29213” value was found to be 3.1 µg/mL. In addition, in experiment [5], the “MIC P. aeruginosa ATCC 27883” value stood at 12.5 µg/mL. Also, the “MIC E. coli ATCC 25922” value in [6] worked out at 12.5 µg/mL. Also, in experiment [7], the MIC K. pneumonia (ATCC BAA-1705) turned out to be 25 µg/mL. Further, the “Broad-spectrum activity E. faecium (ATCC 27270)” value in experiment [8] is recorded as 3.1. Also, the “Broad-spectrum activity E. faecium (ATCC 700221)” value in [9] was 12.5. In [10], the MIC K. pneumonia (ATCC 13883) was found to be 50 µg/mL. Further, the “Broad-spectrum activity E. faecalis (ATCC 29212)” value in experiment [11] is 12.5. The “Broad-spectrum activity E. faecalis (ATCC 51575)” value in experiment [12] is given as 12.5. For the same substance, the “Broad-spectrum activity S. pneumoniae (ATCC 49619)” value in experiment [13] was determined as 25. In experiment [14], the “Broad-spectrum activity S. pneumoniae (ATCC 51938)” value came out at 12.5.

With “c[arg-Arg-Arg-Arg-Dip-Dip-Dip] [IFX-066]”, the “Broad-spectrum activity B. subtilis (ATCC-6633)” value in the experiment on B. subtilis (ATCC-6633) is recorded as 1.5. This substance also registered an MIC E. coli (ATCC BAA-2452) with E. coli (ATCC BAA-2452) of 12.5 µg/mL. Moreover, the “Broad-spectrum activity B. cereus (ATCC-13061)” value in the experiment on B. cereus (ATCC-13061) stood at 6.2. Further, the MIC A. baumannii (ATCC BAA-1605) in [1] came to 6.2 µg/mL. In addition, in experiment [2], the MIC P. aeruginosa (ATCC 10145) came to 25 µg/mL. In experiment [3], the MIC P. aeruginosa (ATCC BAA-1744) stood at 12.5 µg/mL. The “MIC MRSA ATCC BAA-1556” value in experiment [4] was found to be 1.5 µg/mL. Moreover, the “MIC S. aureus ATCC 29213” value in the experiment with S. aureus ATCC 29213 amounted to 3.1 µg/mL. Besides, the “MIC P. aeruginosa ATCC 27883” value in experiment [5] amounted to 12.5 µg/mL. Further, the “MIC E. coli ATCC 25922” value in experiment [6] was 12.5 µg/mL. The MIC K. pneumonia (ATCC BAA-1705) in [7] was determined as 12.5 µg/mL. The “Broad-spectrum activity E. faecium (ATCC 27270)” value in [8] came to 3.1. In experiment [9], the “Broad-spectrum activity E. faecium (ATCC 700221)” value is recorded as 3.1. Moreover, in [10], the MIC K. pneumonia (ATCC 13883) stood at 50 µg/mL. Also, the “Broad-spectrum activity E. faecalis (ATCC 29212)” value in [11] is reported as 6.2. Further, the “Broad-spectrum activity E. faecalis (ATCC 51575)” value in experiment [12] is 12.5. Besides, in [13], the “Broad-spectrum activity S. pneumoniae (ATCC 49619)” value came to 25. Besides, in [14], the “Broad-spectrum activity S. pneumoniae (ATCC 51938)” value is recorded as 12.5.
